The record followed here is paper PMC4170518 (Biochemistry, 2013).

In test [1] the target is T1, class II fructose 1,6-bisphosphate aldolase (MtFBA) (Mycobacterium tuberculosis, UniProt P9WQA3). Nature of the test: biochemical. Format: binding.
Test [2] has as its target T1, class II fructose 1,6-bisphosphate aldolase (MtFBA). Nature of the test: biochemical.

T1 sequence (P9WQA3 whole entry): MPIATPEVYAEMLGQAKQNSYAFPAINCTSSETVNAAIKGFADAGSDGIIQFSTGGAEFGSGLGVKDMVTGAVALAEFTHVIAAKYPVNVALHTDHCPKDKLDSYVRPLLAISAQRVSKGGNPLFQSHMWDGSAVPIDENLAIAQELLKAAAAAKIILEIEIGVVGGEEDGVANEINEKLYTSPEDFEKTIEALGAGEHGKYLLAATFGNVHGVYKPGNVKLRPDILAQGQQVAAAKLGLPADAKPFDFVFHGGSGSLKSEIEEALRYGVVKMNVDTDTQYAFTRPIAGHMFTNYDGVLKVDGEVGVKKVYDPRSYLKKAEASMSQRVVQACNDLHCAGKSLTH

For `O=C(COP(=O)(O)O)NO` [PGH, phosphoglycolohydroxamate], in test [1], the dissociation constant Kd (commonly the equilibrium constant for the complex coming apart) was found to be 0.0211 ± 0.0002 µM.

Turning to `O=C(CO)COP(=O)(O)O` [DHAP, dihydroxyacetone phosphate], the Ki (in general, a measure of affinity in units of concentration, obtained from inhibition or displacement) in test [2] stood at 238 ± 20 µM.
